Measurements taken from patent US20060079453A1, “Hla binding peptides and their uses” (priority 2002, published 2006).
Like-named read-outs stand apart in the source and are kept apart here. No end group written: not given here.

Columns and labels:
Experiment in all cases: biochemical
Format in all cases: binding
[1] = molecular target: HLA-DR DRB1*1302 (DR13) (Homo sapiens, UniProt P01903+P01911, A100E/A169T/K41T/L162R/M171V/P40S/Q125H/Q178H/Q39Y/Q99D/R42S/S66N/T262R/V115G/W38E/Y61H)
[2] = molecular target: HLA-DR DRB1*1101 (DR11) (Homo sapiens, UniProt P01903+P01911, A100R/A169T/A87E/I96F/K41T/L162R/M171V/P40S/Q125H/Q178H/Q39Y/Q99D/R42S/S66Y/T262R/V115G/W38E)
Sequence of HLA-DR DRB1*1101 (DR11) (P01903 26-254 limits assumed, other chains not shown): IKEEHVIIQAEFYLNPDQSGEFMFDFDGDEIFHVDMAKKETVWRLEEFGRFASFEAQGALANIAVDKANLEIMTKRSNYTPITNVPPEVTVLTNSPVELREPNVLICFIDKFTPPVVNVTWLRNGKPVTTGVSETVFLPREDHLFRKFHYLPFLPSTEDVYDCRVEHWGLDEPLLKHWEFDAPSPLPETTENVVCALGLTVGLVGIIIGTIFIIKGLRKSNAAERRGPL

[3] = molecular target: HLA-DR DRB5*0101 (DR51) (Homo sapiens, UniProt P01903+Q30154)
[4] = molecular target: HLA-DR DRB1*1501 (DR15) (Homo sapiens, UniProt P01903+P01911)
[5] = molecular target: HLA-DR DRB1*0301 (DR3) (Homo sapiens, UniProt P01903+P01911, A100K/A102G/A103R/A169T/F55Y/I96L/K41T/L162R/M171V/P40S/Q125H/Q178H/Q39Y/R42S/S66N/T106N/T262R/W38E/Y61H)
Sequence of HLA-DR DRB1*0301 (DR3) (P01903 26-254 limits assumed, other chains not shown): as above

[6] = molecular target: HLA-DR DRB4*0101 (DR53) (Homo sapiens, UniProt P01903+P13762, G164S)
[7] = molecular target: HLA-DR DRB1*0101 (DR1) (Homo sapiens, UniProt P01903+P01911, A100R/D57E/F55L/F60I/F76Y/I96L/L162R/M171V/P40L/Q125E/R42F/V115G/Y59C)
[8] = molecular target: HLA-DR DRB1*0401 (DR4) (Homo sapiens, UniProt P01903+P01911, A100K/A169T/F76Y/I96L/K127E/L162R/M171V/N62H/P40V/Q125Y/R42H/S133A/S149N/S66Y/V115G/V209L/W38E)
[9] = molecular target: HLA-DR DRB1*0701 (DR7) (Homo sapiens, UniProt P01903+P01911, A100R/A102G/A103Q/D57E/D86V/E43K/F76Y/K127E/L162R/M171V/P40G/Q125H/Q99D/R33Q/R42Y/R54Q/S133A/S66F/T210M/V115G/Y107V/Y59L/Y89S)

Sequence of HLA-DR DRB1*1302 (DR13) (P01903 26-254 limits assumed, other chains not shown): as above

Sequence | IC50 ([1]; read-out: DRBI *1302) [nM] | IC50 ([2]; read-out: DRB1 *1101) [nM] | IC50 ([3]; read-out: DRB5 *0101) [nM] | IC50 ([4]; read-out: DRBI *1501) [nM] | IC50 ([6]; read-out: DRB4 *0101) [nM] | also measured
TYSVSFDSLFSAVKN | 5890 | 5980 | 61 | 3220 | – | –
YDFVFADLRIVYRDG | 8170 | 6540 | – | 25700 | – | –
LWWVNNESLPVSPRL | – | – | – | – | – | IC50 [5]: 315 nM
LCNFKKNIIALLHP | 16 | – | > 42600 | 29300 | 99 | –
KATLQDIVLHLEPQN | – | – | – | – | – | IC50 ([7]; DRB1 *0101): 1200 nM; IC50 ([1]; DRBI *1302): 603 nM; IC50 ([8]; DRB1 *0401): 1990 nM; IC50 ([6]; DRB4 *0101): 159 nM; IC50 ([9]; DRB1 *0701): 9090 nM; IC50 ([2]; DRB1 *1101): 25900 nM; IC50 ([3]; DRB5 *0101): > 9930 nM; IC50 ([4]; DRBI *1501): 6970 nM
DFVFADLRIVYRDGN | – | 6960 | 8430 | – | 6710 | –
MLDLQPEITDLYCYE | > 12000 | > 15200 | > 15300 | > 48400 | 20 | –
DRTLMSAMTNLAALF | – | 2370 | 26100 | – | 57 | –
SHDLMLLRLSEPAK | – | – | – | – | – | IC50 ([7]; read-out: DRB1 *0101): 56 nM; IC50 ([8]; read-out: DRB1 *0401): 2240 nM; IC50 ([5]; read-out: DRB1 *0301): 2400 nM
SVTWIGAAPLILSRI | 420 | 2200 | – | – | 42 | –
LRTIQQLLMGTVNIV | – | – | – | – | – | IC50 ([7]; DRB1 *0101): 13 nM; IC50 ([1]; DRBI *1302): 6.4 nM; IC50 ([8]; DRB1 *0401): 108 nM; IC50 ([6]; DRB4 *0101): 15 nM; IC50 ([9]; DRB1 *0701): 513 nM; IC50 ([3]; DRB5 *0101): 32100 nM; IC50 ([4]; DRBI *1501): 265 nM; IC50 [5]: 23200 nM
EEDIEIIFIQEEEY | – | > 20600 | 46100 | – | – | –
LSHFLKEKGGLEGL | – | – | – | – | – | IC50 ([7]; read-out: DRB1 *0101): 537 nM; IC50 ([5]; read-out: DRB1 *0301): > 341000 nM
KSKFNILSSPLFNNF | 25 | – | 32 | 5.9 | – | IC50 ([7]; read-out: DRB1 *0101): 0.8 nM; IC50 ([8]; read-out: DRB1 *0401): 16 nM; IC50 ([9]; read-out: DRB1 *0701): 65 nM
KVSCKGSGYTFTAYQMH | – | – | – | – | – | IC50 ([7]; DRB1 *0101): 5000 nM; IC50 ([9]; DRB1 *0701): 50000 nM; IC50 ([2]; DRB1 *1101): > 200000 nM
